Reference: article PMC4919066 (PLoS Pathogens, 2016)
Counter-ions that a name gives are not always drawn.

Tests used:
MDM2-IE2 = experiment: Co-immunoprecipitation MDM2-IE2 in transfected HEK293 cells; type: cell-based; conditions: IE1/2 transfection, emetine 75 nM or GCV 5 μM for 4 h
Method: HEK-293 cells seeded into 10 cm petri dishes were transfected with HCMV plasmid encoding IE1 and IE2 (pRL45), using Lipofectamine 2000 in serum free medium. After 6 h, 10% FBS containing media was added along with 10 μM of MG132. […] Cells were then harvested to prepare lysates for IP.
Non-infected, infected or emetine-treated HFFs were treated with MG132 (10 μM) for 12h. Cells were harvested after 24 hpi and lysed with IP buffer containing 150 mM NaCl, 50mM Tris pH 7.5, 2 mM EDTA, 0.5% TritonX-100 and 0.5% NP-40-40. 1 mg of lysate was precleared with bead slurry for 30 min. The precleared lysates were incubated with anti-MDM2 (2 μg) antibody overnight. The antibody complexes were isolated using protein A/G beads (Santa Cruz), washed three times with 50% IP buffer. The immunoprecipitate-protein A/G beads were boiled in SDS sample buffer, and the supernatant was analyzed on SDS-PAGE gels after immunoblotting as described previously. 1% of the cell lysate used for IP was loaded on gels as ‘Input’. Confirmatory reverse IPs were performed as described in each experiment. Isotype control antibodies included: rabbit IgG polyclonal, mouse IgG2a kappa and mouse IgG2b kappa monoclonal (Abcam). Mouse monoclonal RPS19 antibody (Abcam) served as an additional negative control for the IPs. Densitometry analysis was performed to determine relative ratio of immunoprecipitated protein to its input level.

HCMV = experiment: Anti-HCMV activity in RPS14 knockdown cells (sh-RPS14); type: cell-based, Human Cytomegalovirus; conditions: emetine 75 nM, luciferase, plaque reduction, viral proteins at 72 hpi
Method: Human Foreskin Fibroblasts (HFFs) passage 12–16 (ATCC, CRL-2088) and mouse embryonic fibroblasts (MEFs) passage 9–14 (ATCC, CRL-1658) were grown in Dulbecco's Modified Eagle Medium (DMEM) containing 10% fetal bovine serum (FBS) (Gibco, Carlsbad, CA) in a 5% CO2 incubator at 37°C. Infection with HCMV or HSV was performed in HFFs, and infection with mouse CMV was performed in MEFs. For HCMV, cells were seeded in either a 96-well plate or 100 mm culture plates (Corning Costar, Sigma Aldrich) at 0.5 or 2 million cells /plate. Following 90 minute adsorption, media was removed and cells were washed with PBS. Media containing 4% FBS and compounds were added to each well. Infected treated HFFs were collected at 72 hpi and lysates were assayed for luciferase activity using a luciferase assay kit (Promega, Madison, WI) on GloMax-Multi+ Detection System (Promega). […] Luciferase activity was measured 72 h following second cycle infection. […] After incubation at 37°C for 10 days (for HCMV), 3 days for MCMV or 2 days (for HSV), the overlay was removed and plaques were counted after crystal violet staining.
Human TRC lentiviral shRNA constructs (Sigma-Aldrich) were used for RPS14 knockdown (KD) in HFFs. […] Control HFFs and RPS14 KD HFFs were counted and equal number of cells was plated prior to infection or treatment.

p21 = experiment: qRT-PCR for p21; type: cell-based, human; conditions: emetine 75 nM, infected high-density cells
Method: Total RNA was isolated from cultured cells using RNeasy Mini kit (Qiagen). RevertAid first strand cDNA synthesis kit (Fermentas life sciences, Cromwell Park, MD) was used to synthesize first strand cDNA from total RNA using oligo-dT primers. Negative RT reactions were included to ensure the specificity of qRT-PCR reactions. Synthesis of first strand cDNA from mRNA template was carried out at 42°C for 1 h. Quantitative RT-PCR was performed in triplicates using specific primers for p21 (F: 5’ […] 3’; R: 5’ […] 3’) and SYBR green (Fermentas life science) with two-step cycling protocol (95°C for 15 s, 60°C for 1 min). GAPDH (F: 5’ […] 3’; R: 5’ […] 3’) was used as the internal control.

## CC[C@H]1CN2CCc3cc(OC)c(OC)cc3[C@@H]2C[C@@H]1C[C@H]1NCCc2cc(OC)c(OC)cc21 [emetine, emetine dihydrochloride hydrate]
MDM2-IE2
  interaction between MDM2 and IE2: significantly decreased
HCMV
  HCMV inhibition in high-density sh-RPS14 cells: unable to inhibit HCMV
p21; 24 hpi
  increase in p21 mRNA: 5.4 fold
p21; 72 hpi
  increase in p21 mRNA: 6.7 fold
